Source: ChEMBL document CHEMBL3593175, “Bicyclic [3.3.0]-Octahydrocyclopenta[c]pyrrolo Antagonists of Retinol Binding Protein 4: Potential Treatment of Atrophic Age-Related Macular Degeneration and Stargardt Disease” (J Med Chem, 2015)
pIC50: −log10 of the molar value.

Experiments:
[1] = target: T1, Retinol-binding protein 4 (Homo sapiens, UniProt P02753); experiment: Inhibition of retinol-induced interaction of bacterially expressed MBP-tagged RBP4 (unknown origin) with Eu3+ cryptate labeled TTR by HTRF assay
[2] = target: T1, Retinol-binding protein 4; experiment: Displacement of [3H]-retinol from RBP4 (unknown origin) by scintillation proximity assay

Compound	pIC50 [1]	pIC50 [2]
Cc1cc(C(N)=O)nc(N2C[C@H]3C[C@@H](c4ccccc4C(F)(F)F)C[C@H]3C2)n1	6.61	8.48
Cc1cc(-c2nnn[nH]2)nc(N2C[C@H]3C[C@@H](c4ccccc4C(F)(F)F)C[C@H]3C2)n1	6.76	
Cc1ccc(N2C[C@H]3C[C@@H](c4ccccc4C(F)(F)F)C[C@H]3C2)nc1C(=O)O	5.31	6.23
O=C(O)c1cncc(N2C[C@H]3C[C@@H](c4ccccc4C(F)(F)F)C[C@H]3C2)c1		< 5.52
O=C(O)c1cccc(N2C[C@H]3C[C@@H](c4ccccc4C(F)(F)F)C[C@H]3C2)c1	5.40	7.08
Cc1ccc(C(=O)O)c(N2C[C@H]3C[C@@H](c4ccccc4C(F)(F)F)C[C@H]3C2)n1	5.70	7.16
O=C(O)c1cncc(N2C[C@H]3C[C@@H](c4ccccc4C(F)(F)F)C[C@H]3C2)n1		6.78
O=C(O)c1cnnc(N2C[C@H]3C[C@@H](c4ccccc4C(F)(F)F)C[C@H]3C2)c1	6.36	7.64
Cc1sc(N2C[C@H]3C[C@@H](c4ccccc4C(F)(F)F)C[C@H]3C2)nc1C(=O)O	6.31	7.53
Cc1cc(C(=O)O)nc(N2C[C@H]3C[C@@H](c4cc(F)ccc4C(F)(F)F)C[C@H]3C2)n1	7.48	7.33
Cc1cc(C(=O)O)nc(N2C[C@H]3C[C@@H](c4cccc(F)c4C(F)(F)F)C[C@H]3C2)n1		6.71
Cc1cc(C(=O)O)nc(N2C[C@H]3C[C@@H](c4cc(F)ccc4Cl)C[C@H]3C2)n1	6.46	6.27
Cc1cc(C(=O)O)nc(N2C[C@H]3C[C@@H](c4cccc(F)c4Cl)C[C@H]3C2)n1	6.30	6.86
